From patent publication US20240174618A1, “SUBSTITUTED (2-HETEROARYLOXYPHENYL)SULFONATES, SALTS THEREOF AND THEIR USE AS HERBICIDAL AGENTS” (Bayer Aktiengesellschaft, priority 2021, published 2024)

Columns and labels:
Type in all cases: in vivo
Poa annua (POAAN) = experiment: A. Herbicidal pre-emergence efficacy, POAAN
In short: (§1)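 Applied before emergence onto covering soil at rates of 1280 g/ha or less, using 600 L/ha spray water with 0.5% additive. Scoring: visual % efficacy after ~3 weeks, greenhouse.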

[1] = test system: Echinochloa crus-galli (ECHCG); experiment: B. Herbicidal post-emergence efficacy, ECHCG; settings: rated visually after about 3 weeks
In short: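 Post-emergence greenhouse test: one-leaf-stage plants, compound (WP/EC, +0.5% additive, 600 L/ha water, ≤1280 g/ha) applied to green parts; % efficacy scored visually vs untreated after ~3 wk; 100% = plants died.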

Setaria viridis (SETVI) [2] = experiment: A. Herbicidal pre-emergence efficacy, SETVI
In short: as §1

Setaria viridis (SETVI) [3] = experiment: E. Herbicidal post-emergence efficacy, SETVI
In short: (§2)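 Compounds applied at 320 g/ha or less as a foliar spray (600 l/ha, 0.5% additive) to one-leaf-stage greenhouse plants grown in sandy loam. Damage is visually scored in percent relative to untreated plants after about 3 weeks.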

[4] = test system: Matricaria inodora (MATIN); experiment: A. Herbicidal pre-emergence efficacy, MATIN
In short: as §1

[5] = test system: Triticum aestivum (TRZAS); experiment: F. Post-emergence effect on useful plants, TRZAS; settings: useful plant
In short: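 Visual efficacy rating versus untreated plants, from 0% (no effect) to 100% (plants died), made about 3 weeks after post-emergence treatment. Formulated compounds (WP or EC, 0.5% additive, 600 l/ha water) were sprayed onto greenhouse-grown crops at the one-leaf stage, 2-3 weeks after sowing.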

Setaria viridis (SETVI) [6] = experiment: C. Herbicidal pre-emergence efficacy, SETVI; settings: scored after about 3 weeks
In short: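 Pre-emergence test: formulated compounds sprayed as aqueous suspension or emulsion with 0.5% additive at 600 l/ha onto soil covering sown seeds, at rates corresponding to 320 g/ha or less. After about 3 weeks in greenhouse, efficacy scored visually as percent versus untreated controls (100% = plants dead).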

Kochia scoparia (KCHSC) = experiment: E. Herbicidal post-emergence efficacy, KCHSC
In short: as §2

[7] = pre-emergence, dosage 1280 g/ha

In the case of `O=S(=O)(CCCC(F)F)Oc1c(F)cccc1Oc1ncc(Cl)cn1` [Example I-56], the “Pre-emergence efficacy against POAAN” value (Poa annua (POAAN); dosage 80 g/ha) is reported as 90%, the “Pre-emergence efficacy against POAAN” value (Poa annua (POAAN); dosage 320 g/ha) is reported as 100% and the “Pre-emergence efficacy against POAAN” value (Poa annua (POAAN); dosage 1280 g/ha) is reported as 100%. For the same molecule, the “Post-emergence efficacy against ECHCG in %” value ([1]; 320 g/ha) was 90%, the “Post-emergence efficacy against ECHCG in %” value ([1]; 1280 g/ha) was 90% and the “Pre-emergence efficacy against SETVI” value (Setaria viridis (SETVI) [2]; dosage 80 g/ha) was 100%. For the same molecule, the “Pre-emergence efficacy against SETVI” value (Setaria viridis (SETVI) [2]; dosage 320 g/ha) was 100%, the “Pre-emergence efficacy against SETVI” value (Setaria viridis (SETVI) [2]; dosage 1280 g/ha) was 100% and the “Post-emergence efficacy against SETVI in %” value (Setaria viridis (SETVI) [3]; application rate 80 g/ha) was 80%. For the same molecule, the “Post-emergence efficacy against SETVI in %” value (Setaria viridis (SETVI) [3]; application rate 320 g/ha) was 100%, the “Pre-emergence efficacy against MATIN” value [4, 7] was 100% and the “Post-emergence efficacy against TRZAS in %” value ([5]; application rate 80 g/ha) was 10%. For the same molecule, the “Pre-emergence efficacy against SETVI” value (Setaria viridis (SETVI) [6]; 80 g/ha) was 100%, the “Pre-emergence efficacy against SETVI” value (Setaria viridis (SETVI) [6]; 320 g/ha) was 100% and the “Post-emergence efficacy against KCHSC in %” value (Kochia scoparia (KCHSC); application rate 80 g/ha) was 100%. The “Post-emergence efficacy against KCHSC in %” value (Kochia scoparia (KCHSC); application rate 320 g/ha) was 100%.
`O=S(=O)(CCCC(F)(F)C(F)(F)F)Oc1c(F)cccc1Oc1ncc(Cl)cn1` [Example I-68] was tested, and the “Pre-emergence efficacy against POAAN” value (Poa annua (POAAN); dosage 320 g/ha) was 90%, the “Pre-emergence efficacy against POAAN” value (Poa annua (POAAN); dosage 1280 g/ha) was 100% and the “Post-emergence efficacy against ECHCG in %” value ([1]; 320 g/ha) was 90%. The “Post-emergence efficacy against ECHCG in %” value ([1]; 1280 g/ha) was 100%, the “Pre-emergence efficacy against SETVI” value (Setaria viridis (SETVI) [2]; dosage 80 g/ha) was 90% and the “Pre-emergence efficacy against SETVI” value (Setaria viridis (SETVI) [2]; dosage 320 g/ha) was 100%. The “Pre-emergence efficacy against SETVI” value (Setaria viridis (SETVI) [2]; dosage 1280 g/ha) was 100%, the “Post-emergence efficacy against SETVI in %” value (Setaria viridis (SETVI) [3]; application rate 80 g/ha) was 100% and the “Post-emergence efficacy against SETVI in %” value (Setaria viridis (SETVI) [3]; application rate 320 g/ha) was 100%. For the same molecule, the “Pre-emergence efficacy against MATIN” value ([4]; 320 g/ha, scored visually after about 3 weeks vs untreated controls) was 100%, the “Pre-emergence efficacy against MATIN” value [4, 7] was 100% and the “Post-emergence efficacy against TRZAS in %” value ([5]; application rate 80 g/ha) was 20%. The “Post-emergence efficacy against TRZAS in %” value ([5]; application rate 320 g/ha) was 20%, the “Pre-emergence efficacy against SETVI” value (Setaria viridis (SETVI) [6]; 320 g/ha) was 100% and the “Post-emergence efficacy against KCHSC in %” value (Kochia scoparia (KCHSC); application rate 80 g/ha) was 80%. For the same molecule, the “Post-emergence efficacy against KCHSC in %” value (Kochia scoparia (KCHSC); application rate 320 g/ha) was 90%.
